# ChEMBL document CHEMBL5370621, “Design, Synthesis, and Biological Evaluation of Novel Thioureidobenzamide (TBA) Derivatives as HBV Capsid Assembly Modulators” (J Med Chem, 2023)
# Activity calls are given as the source filed them. The rule behind the calls is not given here.
# Experiments:
# [1] = Half life in Sprague-Dawley rat at 2 mg/kg, iv by LC-MS/MS analysis; assay type: ADME, organism-based; conditions: in vivo
# [2] = Metabolic stability of the compound in human liver microsomes assessed as parent compound remaining at 100 uM incubated for 60 mins in absence of NADPH by LC-MS/MS analysis; assay type: ADME, Microsome; conditions: read-out: Stability
# [3] = Hepatotoxicity in C57BL/6J mouse infected with Hepatitis B virus assessed as serum AST level at 25 mg/kg/day, po for 18 days by colorimetry; assay type: toxicity, organism-based; conditions: in vivo, 432 h, time 18 day
# Hepatitis B virus [4] = assay: Antiviral activity against Hepatitis B virus infected in human HLCZ01 cells assessed as inhibition of HBV virion production by measuring inhibition of viral DNA replication incubated for 6 days by qPCR analysis; assay type: functional, organism-based
# [5] = Metabolic stability of the compound in human liver microsomes assessed as parent compound remaining at 100 uM incubated for 60 mins in presence of NADPH by LC-MS/MS analysis; assay type: ADME, Microsome; conditions: read-out: Stability
# Hepatitis B virus [6] = assay: Antiviral activity against Hepatitis B virus infected in human HePAD38 cells assessed as inhibition of viral DNA replication by qPCR analysis; assay type: functional, organism-based
# [7] = AUC(0 to t) in Sprague-Dawley rat at 20 mg/kg, po by LC-MS/MS analysis; assay type: ADME, organism-based; design: dose 20 mg/kg, route po; conditions: in vivo
# [8] = MRT(0 to t) in Sprague-Dawley rat at 20 mg/kg, po by LC-MS/MS analysis; assay type: ADME, organism-based; conditions: in vivo
# [9] = MRT(0 to infinity) in Sprague-Dawley rat at 20 mg/kg, po by LC-MS/MS analysis; assay type: ADME, organism-based; conditions: in vivo
# [10] = AUC(0 to infinity) in Sprague-Dawley rat at 2 mg/kg, iv by LC-MS/MS analysis; assay type: ADME, organism-based; design: dose 2 mg/kg, route iv; conditions: in vivo
# Hepatitis B virus [11] = assay: Antiviral activity against Hepatitis B virus infected in C57BL/6J mouse assessed as reduction in HBsAg level in serum at 25 mg/kg/day, po for 18 days by ELISA; assay type: functional, organism-based; conditions: time 18.0 day
# [12] = Volume of distribution at steady state in Sprague-Dawley rat at 2 mg/kg, iv by LC-MS/MS analysis; assay type: ADME, organism-based; conditions: in vivo
# Hepatitis B virus [13] = assay: Antiviral activity against Hepatitis B virus infected in C57BL/6J mouse assessed as inhibition of viral DNA level in serum at 25 mg/kg/day, po for 18 days by qPCR analysis; assay type: functional, organism-based; conditions: time 18.0 day
# [14] = Cytotoxicity against human HLCZ01 cells assessed as reduction in cell viability upto 30 uM incubated for 72 hrs by CCK8 assay; assay type: toxicity, cell-based; conditions: hlcz01, 72 h
# [15] = AUC(0 to infinity) in Sprague-Dawley rat at 20 mg/kg, po by LC-MS/MS analysis; assay type: ADME, organism-based; design: dose 20 mg/kg, route po; conditions: in vivo
# Hepatitis B virus [16] = assay: Antiviral activity against Hepatitis B virus infected in C57BL/6J mouse assessed as reduction in HBcAg expression […] at 25 mg/kg/day, po for 18 days by immunohistochemistry; assay type: functional, organism-based; conditions: time 18.0 day
# [17] = Cmax in Sprague-Dawley rat at 2 mg/kg, iv by LC-MS/MS analysis; assay type: ADME, organism-based; design: dose 2 mg/kg, route iv; conditions: in vivo
# Hepatitis B virus [18] = assay: Antiviral activity against Hepatitis B virus infected in human HLCZ01 cells assessed as reduction in HBsAg level at 0.03 to 3 uM incubated for 6 days by ELISA; assay type: functional, organism-based; conditions: dose 0.03-3 µM, time 6.0 day
# [19] = Oral bioavailability in Sprague-Dawley rat at 20 mg/kg by LC-MS/MS analysis; assay type: ADME, organism-based; conditions: in vivo
# [20] = Tmax in Sprague-Dawley rat at 20 mg/kg, po by LC-MS/MS analysis; assay type: ADME, organism-based; conditions: in vivo
# [21] = Selectivity index, ratio of CC50 for cytotoxicity against human HePAD38 cells to EC50 for antiviral activity against Hepatitis B virus infected in human HePAD38 cells; assay type: toxicity, cell-based; conditions: read-out: Ratio CC50/EC50
# Core antigen = Core antigen (Hepatitis B virus, UniProt Q03732); assay: Inhibition of fluorescent-labeled capsid assembly in Hepatitis B virus incubated for 1 hr by fluorescence based analysis
# Core antigen, sequence (Q03732 whole entry): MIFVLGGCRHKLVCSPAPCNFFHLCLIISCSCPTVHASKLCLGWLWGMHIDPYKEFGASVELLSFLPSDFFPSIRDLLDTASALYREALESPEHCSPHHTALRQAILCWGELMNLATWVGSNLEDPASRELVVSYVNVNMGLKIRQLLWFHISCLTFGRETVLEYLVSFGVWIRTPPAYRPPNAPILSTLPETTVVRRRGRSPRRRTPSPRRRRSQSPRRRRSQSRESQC
# [22] = MRT(0 to t) in Sprague-Dawley rat at 2 mg/kg, iv by LC-MS/MS analysis; assay type: ADME, organism-based; conditions: in vivo
# [23] = AUC(0 to t) in Sprague-Dawley rat at 2 mg/kg, iv by LC-MS/MS analysis; assay type: ADME, organism-based; design: dose 2 mg/kg, route iv; conditions: in vivo
# [24] = Intrinsic clearance in human liver microsomes at 100 uM preincubated for 10 mins followed by incubation with NADPH regenerating system for 30 mins and measured per mg protein by LC-MS/MS analysis; assay type: ADME, Microsome; conditions: time 40 min, read-out: CLH
# [25] = Cytotoxicity against human HePAD38 cells assessed as reduction in cell viability incubated for 72 hrs by CCK8 assay; assay type: toxicity, cell-based
# [26] = Cmax in Sprague-Dawley rat at 20 mg/kg, po by LC-MS/MS analysis; assay type: ADME, organism-based; design: dose 20 mg/kg, route po; conditions: in vivo
# [27] = Half life in human plasma at 100 uM by LC-MS/MS analysis; assay type: ADME, cell-free
# [28] = Hepatotoxicity in C57BL/6J mouse infected with Hepatitis B virus assessed as serum ALT level at 25 mg/kg/day, po for 18 days by colorimetry; assay type: toxicity, organism-based; conditions: in vivo, 432 h, time 18 day
# [29] = Half life in human liver microsomes at 100 uM preincubated for 10 mins followed by incubation with NADPH regenerating system for 30 mins by LC-MS/MS analysis; assay type: ADME, Microsome; conditions: time 40 min
# [30] = Half life in Sprague-Dawley rat at 20 mg/kg, po by LC-MS/MS analysis; assay type: ADME, organism-based; conditions: in vivo
smiles,measurement,setting,value
C=CCNC(=S)Nc1cc(C(=O)Nc2ccc(F)c(C)c2)c(C)cc1F,half-life,[1],0.98 h
same,"remaining at 1 h, 100 µM",[2],72.6%
same,Activity,[3],Non-Toxic
same,EC50,"Hepatitis B virus [4]; HLCZ01, 144 h",33 nM
same,Activity,Hepatitis B virus [4]; time 6.0 day,Dose-Dependent Effect
same,"remaining at 1 h, 100 µM",[5],31.2%
same,EC50,Hepatitis B virus [6],12 nM
same,AUC(0-t),[7],22000 ng·h/mL
same,MRT last,[8],3.16 h
same,MRT inf,[9],3.26 h
same,AUC(0-inf),[10],3260 ng·h/mL
same,Activity,Hepatitis B virus [11],inactive
same,Vdss,[12],0.51 L/kg
same,Activity,Hepatitis B virus [13],Active
same,Activity,[14],Non-Toxic
same,AUC(0-inf),[15],22000 ng·h/mL
same,Activity,Hepatitis B virus [16],Active
same,Cmax,[17],5390 ng/mL
same,Activity,Hepatitis B virus [18],inactive
same,bioavailability,[19],67.7%
same,Tmax,[20],1.83 h
same,selectivity ratio,[21],2210
same,IC50,Core antigen,880 nM
same,MRT last,[22],0.82 h
same,AUC(0-t),[23],3260 ng·h/mL
same,microsomal CLint at 100 µM,[24],36.4 µL/min/mg
same,CC50 at 72 h,[25],26600 nM
same,Cmax,[26],4770 ng/mL
same,half-life at 100 µM,[27],0.9 h
same,Activity,[28],Non-Toxic
same,half-life at 100 µM,[29],0.635 h
same,half-life,[30],1.67 h
O=C(O)Cc1ccccc1Nc1c(Cl)cccc1Cl [DICLOFENAC],microsomal CLint at 100 µM,[24],257 µL/min/mg
Cc1cc(NC(=O)c2cc(NC(=S)NC(C)C)c(F)cc2Br)ccc1F,EC50,Hepatitis B virus [6],140 nM
same,selectivity ratio,[21],> 714
same,IC50,Core antigen,940 nM
same,CC50 at 72 h,[25],> 100000 nM
